Assay results from article PMC4848641, “The Scorpion Toxin Analogue BmKTX-D33H as a Potential Kv1.3 Channel-Selective Immunomodulator for Autoimmune Diseases” (Toxins, 2016).
“Also recorded” adds a separate entry of the source. Where a SMILES comes first, the peptide text is derived from it. Bridges are numbered along the chain shown (N, C = ends).

Columns and labels:
KCa3.1 = assay: Whole-cell patch-clamp, KCa3.1 channel currents (transfected HEK293 cells); type: cell-based; details: micromolar concentration (1 μM), pH 7.4
Description: (§1) Whole cell patch-clamp recordings of Kv1.3 channel were obtained from human T cells. Electrophysiological experiments of other assayed potassium channels were performed on HEK293 cells transfected with cDNA encoding Kv1.1, Kv1.2, Kv1.3, Kv7.1, Kv11.1, KCa2.2, KCa2.3, and KCa3.1 channels using TurboFect Reagent (ThermoSci., Waltham, MA, USA). The cDNAs were subcloned into the Xho I/Bam HI sites of pIRES2-EGFP, a bicistronic expression vector (Clontech, Mountain View, CA, USA) coexpressed with enhanced GFP. The constructs were verified by DNA sequencing. Currents were recorded on eGFP-expression positive cells one to three days post-transfection. Electrophysiological experiments were performed using protocols according to previously published references. Cells were bathed with mammalian Ringer’s solution: 5 mM KCl, 140 mM NaCl, 2 mM CaCl2, 1 mM MgCl2, […], 10 mM D-glucose (adjusted to pH 7.4 with NaOH). A multichannel microperfusion system MPS-2 (INBIO Inc, Wuhan, China) was used to exchange the external recording bath solution. […] Membrane currents were measured with an EPC 10 patch clamp amplifier (HEKA Elektronik, Lambrecht/Pfalz, Germany) interfaced to a computer running acquisition and analysis software (Pulse, v8.80, HEKA Elektronik, Lambrecht/Pfalz, Germany). […]

CD3^+ T cells [1] = details: pre-incubation for 1 h before activation; anti-CD3/CD28 beads; ELISA
Description: (§2) Peripheral blood (PB) obtained from four healthy volunteers was approved by the Ethics Committee of the College of Life Sciences in Wuhan University (Permit number: ECCLS20120076, approved at 3 May 2012). Ficoll gradients were used to isolate mononuclear cells from PB. The CD3^+ T cells were then purified using EasySep Isolation Kit (StemCell Technologies, Vancouver, BC, Canada), and cultured at density of 5 × 10^5 cells per cm^2 in RPMI-1640 medium supplemented with 2 mM glutamine, and 10% FBS. All the T-cells were cultured at a temperature of 37 °C in a humidified 95% air and 5% CO2 atmosphere. […]
(§3) The Jurkat cells or peripheral blood CD3^+ cells were seeded in round-bottom plates (Corning-costar) at 5 × 10^5 cells per cm^2. […] The cells were cultured for 48 h, and cell proliferation was measured using CellTiter 96 AQueous One Solution Cell Proliferation Assay Kit (Promega, Madison, WI, USA) in accordance with the manufacturer’s guide. Absorbance was read at a wavelength of 490 nm.
(§4) The IL-2, IFN-γ, and TNF-α levels in supernatants of stimulated cells were measured with ELISA kit (Dakewei, Shenzhen, China) following the manufacturer’s protocol. Absorbance was measured with an automatic plate reader at a wavelength of 450 nm with reference at 630 nm.

Jurkat cells [2] = type: cell-based; details: 48 h post-stimulation with 100 ng/mL PMA and 1 mM Ionmycin; CellTiter 96 AQueous One Solution, 490 nm
Text: (§5) Jurkat E6-1 cells were obtained from the American Tissue Culture Collection (ATCC, Manassas, VA, USA) and cultured in RPMI-1640 supplied with 10% fetal bovine serum (FBS).
as §2, with “atmosphere. The Jurkat cells were stimulated with 100 ng/ml phorbol ester (PMA) (Sigma-Aldrich, Munich, Germany) and […] Ionmycin (ION) (Sigma-Aldrich, Munich, Germany).” for “atmosphere.”
as §3

Kv1.1 = assay: Whole-cell patch-clamp, Kv1.1 channel currents (transfected HEK293 cells); type: cell-based; details: 1 μM, −80 mV to +50 mV, pH 7.4, means ± S.E. of at least three experiments
Description: as §1

Kv1.3 channel [3] = details: ref [29], cited from earlier work
Text: The venomous scorpions, which have lived on earth for over 400 million years, rely on their venoms for their efficient defense and capture strategy. During their molecular evolution, scorpions produced hundreds of peptide-based toxins in their venoms, typically targeting ion channels with a high degree of molecular diversity. Accordingly, scorpion venoms have been considered as invaluable resources of ion channel inhibitors. […] Because ADWX-1 is a potent blocker of the […] channel (IC50 value of 0.6 nM), we further investigated the pharmacological profile of BmKTX-D33H. || The most remarkable feature of BmKTX-D33H is its sought-after selectivity towards the Kv1.3 channel. Indeed, improving the selectivity of scorpion toxins (especially Kv1.1 versus Kv1.3 channel subtypes) still remains a serious challenge. […] For ADWX-1 ...

Kv11.1 = type: cell-based; details: micromolar concentration (1 μM); HEK293 cells, patch-clamp, pH 7.4
Description: as §1

KCa2.2 = assay: Whole-cell patch-clamp, KCa2.2 channel currents (transfected HEK293 cells); type: cell-based; details: micromolar concentration (1 μM), pH 7.4
Description: as §1

CD3^+ T cells [4] = type: cell-based; details: human CD3^+ T cells, anti-CD3/CD28 beads, 48 h; CellTiter 96 AQueous One Solution, 490 nm
Description: Peripheral blood (PB) obtained from four healthy volunteers was approved by the Ethics Committee of the College of Life Sciences in Wuhan University (Permit number: ECCLS20120076, approved at 3 May 2012). Ficoll gradients were used to isolate mononuclear cells from PB. The CD3^+ T cells were then purified using EasySep Isolation Kit (StemCell Technologies, Vancouver, BC, Canada), and cultured at density of 5 × 10^5 cells per cm^2 in RPMI-1640 medium supplemented with 2 mM glutamine, and 10% FBS. All the T-cells were cultured at a temperature of 37 °C in a humidified 95% air and 5% CO2 atmosphere. The Jurkat cells were stimulated with 100 ng/ml phorbol ester (PMA) (Sigma-Aldrich, Munich, Germany) and […] Ionmycin (ION) (Sigma-Aldrich, Munich, Germany). The CD3^+ T cells were stimulated with anti-CD3/CD28 antibodies beads (Life Technologies, Waltham, MA, USA). BmKTX-D33H (ranged from 0.1 to 100 nM) was added for 1 h prior to stimulation.
as §3

Jurkat cells [5] = tested on: Jurkat cells
Text: as §5
as §2, with “FBS.” for “FBS. All the T-cells were cultured at a temperature of 37 °C in a humidified 95% air and 5% CO2 atmosphere.”
as §3, §4

[6] = tested on: Kv1.3 channels on the freshly isolated CD3^+ T cells; assay: Whole-cell patch-clamp, Kv1.3 currents in freshly isolated human CD3^+ T cells; type: cell-based; details: pH 7.4, means ± S.E. of at least three experiments
Description: as §1

Kv1.2 = assay: Whole-cell patch-clamp, Kv1.2 channel currents (transfected HEK293 cells); type: cell-based; details: micromolar concentration (1 μM), pH 7.4
Description: as §1

KCa2.3 = assay: Whole-cell patch-clamp, KCa2.3 channel currents (transfected HEK293 cells); type: cell-based; details: micromolar concentration (1 μM), pH 7.4
Description: as §1

Lewis rats = assay: Active delayed-type hypersensitivity (DTH), ear swelling; type: in vivo; details: female Lewis rats; 100 μg/kg, single subcutaneous injection at ovalbumin challenge; 4, 6, and 24 h after challenge; vs vehicle control
Description: The animal trial was approved by the Animal Use and Care Committee of the Wuhan University. Female Lewis rats (9–10 weeks of age) were purchased from Charles River Laboratories and housed under pathogen-free conditions. Active DTH was induced as describe previously by immunizing rats against antigen of ovalbumin (Sigma-Aldrich, Munich, Germany) emulsified with complete Freund’s adjuvant (Sigma-Aldrich, Munich, Germany). The emulsion was injected subcutaneously into Lewis rats in order to prime the immune system and develop memory T cells. Seven days later, the rats were challenged again with ovalbumin (20 μg in 20 μL of saline solution) in the pinna of one ear (challenged ear). The other side of ear received saline solution as challenge control. Rats in control group received a single subcutaneous injection of 0.5 mL vehicle (saline solution) in the scruff of the neck, at the time of second-challenge. Whereas, rats in drug-treatment group received 100 μg/kg BmKTX-D33H (in 0.5 mL vehicle) administrated using the same method. The change for thickness of ear (at 4, 6, and 24 h post-challenge) was measured as an indication of the inflammatory reaction and DTH severity.

Kv1.3 channels = assay: Whole-cell patch-clamp, Kv1.3 channel currents; type: cell-based; details: 10 pM, 200 ms depolarizing steps from holding potential −80 mV to +50 mV, pH 7.4, means ± S.E. of at least three experiments
Description: as §1

Kv1.7 = assay: Whole-cell patch-clamp, Kv1.7 (Kv7.1 in legend and methods) channel currents (transfected HEK293 cells); type: cell-based; details: micromolar concentration (1 μM), pH 7.4
Description: as §1

Kv1.3 channel [7] = assay: Selectivity towards the Kv1.3 channel over other K^+ channels; type: cell-based; details: versus Kv1.1, Kv1.2, Kv1.7 (Kv7.1), Kv11.1, KCa2.2, KCa2.3, and KCa3.1
Description: as §1

CC[C@H](C)[C@H](NC(=O)CNC(=O)[C@@H](N)C(C)C)C(=O)N[C@@H](CC(N)=O)C(=O)N[C@H](C(=O)N[C@@H](CCCCN)C(=O)N[C@H]1CSSC[C@@H]2NC(=O)[C@H](CCCCN)NC(=O)CNC(=O)[C@H](Cc3ccccc3)NC(=O)[C@H](CCCNC(=N)N)NC(=O)[C@H](CCSC)NC(=O)CNC(=O)[C@H](C)NC(=O)[C@H](CC(=O)O)NC(=O)[C@H](CCCCN)NC(=O)[C@@H]3CSSC[C@@H](C(=O)N[C@H](C(=O)N4CCC[C@H]4C(=O)N[C@@H](CCCCN)C(=O)O)[C@@H](C)O)NC(=O)[C@H](Cc4c[nH]cn4)NC(=O)[C@H](CSSC[C@H](NC(=O)[C@H](CCC(N)=O)NC(=O)CNC(=O)[C@H](CO)NC(=O)[C@H](Cc4c[nH]cn4)NC(=O)[C@H](CCCCN)NC1=O)C(=O)N[C@@H](CC(C)C)C(=O)N[C@@H](CCCCN)C(=O)N1CCC[C@H]1C(=O)N3)NC(=O)[C@H](CCCCN)NC(=O)CNC(=O)[C@H](CC(N)=O)NC(=O)[C@H]([C@@H](C)CC)NC2=O)C(C)C [BmKTX-D33H] (H-VGINVKCKHSGQCLKPCKDAGMRFGKCINGKCHCTPK-OH; disulfide 7-27, 13-32, 17-34; N-terminus and C-terminus assumed)
sensitivity of KCa3.1 channel (KCa3.1): much less sensitive
IFN-γ, TNF-α and IL-2 secretion of human T cells (CD3^+ T cells [1]): robust dose-dependent reduction
proliferation (growth) of Jurkat cells (Jurkat cells [2]): significantly inhibited; also recorded: Proliferation of activated Jurkat cells was suppressed
inhibition of Kv1.1 channel currents (Kv1.1): about 46.6% ± 2.0%
potency on the Kv1.3 channel compared with wild-type BmKTX (Kv1.3 channel [3]; compared to wild-type BmKTX): increased potency (as compared to wild-type BmKTX)
IC50 (Kv1.3 channel [3]): 0.0154 nM
sensitivity of Kv11.1 channel (Kv11.1): much less sensitive
sensitivity of KCa2.2 channel (KCa2.2): much less sensitive
proliferation (growth) of CD3^+ cells (CD3^+ T cells [4]): suppressed the growth of CD3^+ cells; also recorded: Suppression of cytokine production and in vitro proliferation
IC50 (Jurkat cells [5]; 33 h): 23.9 ± 20.1 nM
IL-2 expression of Jurkat cells (Jurkat cells [5]; stimulated by PMA + ION, ELISA): significantly reduced
inhibition of Kv1.3 currents in CD3^+ T cells ([6]; 1 nM): 63.3% ± 2.9%
inhibition of Kv1.3 currents in CD3^+ T cells ([6]; 10 nM): 90.7% ± 2.1%
sensitivity of Kv1.2 channel (Kv1.2): much less sensitive
sensitivity of KCa2.3 channel (KCa2.3): much less sensitive
DTH response, change of ear thickness (Lewis rats): significantly improved the delayed-type hypersensitivity (DTH) responses; also recorded: changes of ear thickness were significantly reduced; also recorded: dramatically reduced the in vivo DTH responses
inhibition of Kv1.3 channel currents (Kv1.3 channels): 56.0% ± 2.0%
sensitivity of Kv1.7 channel (Kv1.7): much less sensitive
selectivity towards the Kv1.3 channel as compared to other K^+ channels (Kv1.3 channel [7]): more than 1000 fold
